Data published in PMC12635268, “Novel antimicrobial peptides and peptide-microbiome crosstalk in Appalachian salamander skin” (NPJ Biofilms and Microbiomes, 2025).
Ends that are not written are not given here. Peptide text beside a SMILES is read from it.

Assays:
K. pneumoniae 4640 = conditions: 4640, 20 h
E. faecium ATCC 19434 = experiment: microbe, parasite or virus in culture; conditions: ATCC 19434, 20 h
Description: (§1) Antimicrobial susceptibility testing of the 20 synthesized peptides against 17 bacterial strains of clinical relevance in the ESKAPEE panel was conducted using minimum inhibitory concentration (MIC) assays following the broth microdilution method outlined by Parker et al.[91]. The ESKAPEE panel is comprised of fourteen American Type Culture Collection (ATCC) strains and three Multidrug Resistant Organism Repository and Surveillance Network (MRSN) bacterial strains. These strains represent at least one drug-susceptible strain and one drug-resistant strain for each bacterium to assess drug efficacy across various resistance mechanisms. This panel is comprised of the following bacterial species and strains: E. faecium (ATCC 19434, ATCC 49224), S. aureus (ATCC 25923, ATCC 43300), K. pneumoniae (ATCC 700603, ATCC 13883, MRSN 1320), A. baumannii (ATCC 17978, ATCC 19606, MRSN 959), P. aeruginosa (ATCC 15692, ATCC 27853, MRSN 5519), E. cloacae (ATCC 13047, ATCC 35549), and E. coli (ATCC 35218, ATCC 43888). Bacteria were grown in cation-adjusted Mueller-Hinton broth (CAMHB) to achieve a final inoculum of 1 × 10⁵ CFU/mL. CAMHB is selected for its batch-to-batch reproducibility, low levels of antimicrobial inhibitors, and ability to support the growth of most bacterial pathogens.
(§2) Briefly, lyophilized peptides were dissolved in 0.2% TFA + 0.4% BSA in water to 2.56 mg/mL, ultrasonicated for 20 min, diluted 10-fold into CAMHB, and then serially diluted 2-fold in 0.02% TFA + 0.04% BSA in CAMHB and assayed at a concentration of 0.25 to 128 μg/mL. Assays were set up using the Tecan Freedom EVO liquid handling robot and software (Tecan, Switzerland) with 50 μL of bacterial inoculum and 50 μL of peptide transferred into round-bottom 96-well microtiter plates. Each plate assay was performed in duplicate and incubated at 37 °C for 20 h without agitation. Bacterial growth was assessed using the BIOMIC V3 Image Analysis system (Giles Scientific, USA) and the MIC values were determined visually according to the Clinical and Laboratory Standards Institute (CLSI) guidelines.

A. baumannii ATCC 17978 = experiment: microbe, parasite or virus in culture; conditions: ATCC 17978, 20 h
Description: as §1, §2

E. coli ATCC 35218 = experiment: microbe, parasite or virus in culture; conditions: E. coli 35218; Week 1 (12/6/2023)
Description: as §1, §2

K. pneumoniae ATCC 13883 = experiment: microbe, parasite or virus in culture; conditions: ATCC 13883, 20 h
Description: as §1, §2

S. aureus ATCC 25923 = experiment: microbe, parasite or virus in culture; conditions: ATCC 25923, 20 h
Description: as §1, §2

E. cloacae ATCC 35549 = experiment: microbe, parasite or virus in culture; conditions: ATCC 35549, 20 h
Description: as §1, §2

P. aeruginosa ATCC 27853 = experiment: microbe, parasite or virus in culture; conditions: ATCC 27853, 20 h
Description: as §1, §2

A. baumannii ATCC 19606 = experiment: microbe, parasite or virus in culture; conditions: ATCC 19606, 20 h
Description: as §1, §2

S. aureus ATCC 43300 = experiment: microbe, parasite or virus in culture; conditions: S. aureus 43300; Week 1 (12/6/2023)
Description: as §1, §2

[1] = test system: K. pneumoniae ATCC 700603; experiment: microbe, parasite or virus in culture; conditions: K. pneumoniae 700603; Week 1 (12/6/2023)
Description: as §1, §2

E. coli ATCC 43888 = experiment: microbe, parasite or virus in culture; conditions: ATCC 43888, 20 h
Description: as §1, §2

E. faecium ATCC 49224 = experiment: microbe, parasite or virus in culture; conditions: ATCC 49224, 20 h
Description: as §1, §2

P. aeruginosa MRSN 5519 = experiment: microbe, parasite or virus in culture; conditions: MRSN 5519, 20 h
Description: as §1, §2

E. cloacae ATCC 13047 = experiment: microbe, parasite or virus in culture; conditions: ATCC 13047, 20 h
Description: as §1, §2

[2] = set-up: method as in Biomatik (vendor); conditions: 1.0 mg peptide in 1.0 ml solvent; peptides synthesized by Biomatik; ref Biomatik (vendor); cited from earlier work
P. aeruginosa PA01 (Si) = experiment: microbe, parasite or virus in culture; assay type: cell-based; conditions: Si
From the text: Supplement 41522_2025_837_MOESM13_ESM.xlsx, sheet "Table_S13_ESKAPEE-MIC" | column: Bacterial MIC (µg/mL)

A. baumannii 5075 = conditions: Week 1 (12/6/2023)

| Compound | Bacterial MIC (K. pneumoniae 4640) [µg/mL] | Bacterial MIC (E. faecium ATCC 19434) [µg/mL] | Bacterial MIC (A. baumannii ATCC 17978) [µg/mL] | Bacterial MIC (E. coli ATCC 35218) [µg/mL] | Bacterial MIC (K. pneumoniae ATCC 13883) [µg/mL] | Bacterial MIC (S. aureus ATCC 25923) [µg/mL] | Bacterial MIC (E. cloacae ATCC 35549) [µg/mL] | Bacterial MIC (P. aeruginosa ATCC 27853) [µg/mL] | Bacterial MIC (A. baumannii ATCC 19606) [µg/mL] | Bacterial MIC (S. aureus ATCC 43300) [µg/mL] | Bacterial MIC [1] [µg/mL] | Bacterial MIC (E. coli ATCC 43888) [µg/mL] | Bacterial MIC (E. faecium ATCC 49224) [µg/mL] | Bacterial MIC (P. aeruginosa MRSN 5519) [µg/mL] | Bacterial MIC (E. cloacae ATCC 13047) [µg/mL] | Suggest solvent (solubility) [2] | Bacterial MIC (P. aeruginosa PA01 (Si)) [µg/mL] | Bacterial MIC (A. baumannii 5075) [µg/mL] |
| --- | --- | --- | --- | --- | --- | --- | --- | --- | --- | --- | --- | --- | --- | --- | --- | --- | --- | --- |
| CC[C@H](C)[C@H](NC(=O)CNC(=O)CNC(=O)[C@@H](NC(=O)[C@H](CS)NC(=O)[C@H](CCCCN)NC(=O)[C@H](CCCCN)NC(=O)CNC(=O)[C@@H](NC(=O)[C@@H]1CCCN1C(=O)[C@@H](N)CCC(N)=O)[C@@H](C)CC)[C@@H](C)O)C(=O)N[C@@H](CC(N)=O)C(=O)N[C@@H](CS)C(=O)N[C@@H](CCCCN)C(=O)N[C@@H](CCCCN)C(=O)NCC(=O)N1CCC[C@H]1C(=O)N1CCC[C@H]1C(=O)N[C@@H](CCCNC(=N)N)C(=O)N[C@@H](CC(C)C)C(=O)N[C@@H](CCCCN)C(=O)N1CCC[C@H]1C(=O)NCC(=O)O [TrPr-Pc6] (H-QPIGKKCTGGINCKKGPPRLKPG-OH; N-terminus and C-terminus assumed) | >128.000 | >128.000 | >128.000 | >128.000 | >128.000 | >128.000 | >128.000 | >128.000 | >128.000 | >128.000 | >128.000 | >128.000 | >128.000 | >128.000 | >128.000 | 1.0mg peptide soluble in 1.0ml H2O | >128.000 | >128.000 |
| IRRPPGFSPFR [PrAd-Eb8] | >128.000 | >128.000 | >128.000 | >128.000 | >128.000 | >128.000 | >128.000 | >128.000 | >128.000 | >128.000 | >128.000 | >128.000 | >128.000 | >128.000 | >128.000 | 1.0mg peptide soluble in 1.0ml H2O | >128.000 | >128.000 |
